Assay results as given in PubChem BioAssay (NCI).
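How tested: cells in 96-well plates exposed to compound for 48 hours at five concentrations. TGI marks complete inhibition of growth.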 Where a SMILES comes first, the peptide text is derived from it. [ ]: non-standard residue; d: D form.

Assays:
Assay in all cases: NCI-60 cell line screen, 48 h
SK-OV-3 ovarian = tested on: SK-OV-3 ovarian
CAKI-1 renal = tested on: CAKI-1 renal
NCI-H226 lung = tested on: NCI-H226 lung
LOX IMVI melanoma = tested on: LOX IMVI melanoma
M14 melanoma = tested on: M14 melanoma
HOP-62 NSCLC = tested on: HOP-62 NSCLC
OVCAR-4 ovarian = tested on: OVCAR-4 ovarian
HOP-92 NSCLC = tested on: HOP-92 NSCLC
PC-3 prostate = tested on: PC-3 prostate
UACC-62 melanoma = tested on: UACC-62 melanoma
NCI-H522 lung = tested on: NCI-H522 lung
HCC-2998 colon = tested on: HCC-2998 colon
SK-MEL-2 melanoma = tested on: SK-MEL-2 melanoma
A498 renal = tested on: A498 renal
MDA-MB-435 = tested on: MDA-MB-435
COLO 205 colon = tested on: COLO 205 colon
OVCAR-3 ovarian = tested on: OVCAR-3 ovarian
T-47D breast = tested on: T-47D breast
SF-268 CNS = tested on: SF-268 CNS
UACC-257 melanoma = tested on: UACC-257 melanoma
BT-549 breast = tested on: BT-549 breast
HL-60(TB) leukemia = tested on: HL-60(TB) leukemia
CCRF-CEM leukemia = tested on: CCRF-CEM leukemia
NCI-H23 lung = tested on: NCI-H23 lung
HT29 colon = tested on: HT29 colon
RPMI-8226 leukemia = tested on: RPMI-8226 leukemia
SNB-19 CNS = tested on: SNB-19 CNS
KM12 colon = tested on: KM12 colon
ACHN renal = tested on: ACHN renal
NCI/ADR-RES ovarian = tested on: NCI/ADR-RES ovarian
SW-620 colon = tested on: SW-620 colon
MDA-MB-231 breast = tested on: MDA-MB-231 breast
DU-145 prostate = tested on: DU-145 prostate
HCT-116 colon = tested on: HCT-116 colon
HCT-15 colon = tested on: HCT-15 colon
K-562 leukemia = tested on: K-562 leukemia
SN12C renal = tested on: SN12C renal
U251 CNS = tested on: U251 CNS
IGROV1 ovarian = tested on: IGROV1 ovarian
OVCAR-5 ovarian = tested on: OVCAR-5 ovarian
SR leukemia = tested on: SR leukemia
A549 NSCLC = tested on: A549 NSCLC
SK-MEL-5 melanoma = tested on: SK-MEL-5 melanoma
786-0 renal = tested on: 786-0 renal
MOLT-4 leukemia = tested on: MOLT-4 leukemia
OVCAR-8 ovarian = tested on: OVCAR-8 ovarian
MCF7 breast = tested on: MCF7 breast
SF-539 CNS = tested on: SF-539 CNS
RXF 393 renal = tested on: RXF 393 renal
EKVX NSCLC = tested on: EKVX NSCLC
NCI-H460 lung = tested on: NCI-H460 lung
HS 578T breast = tested on: HS 578T breast
TK-10 renal = tested on: TK-10 renal
UO-31 renal = tested on: UO-31 renal
SF-295 CNS = tested on: SF-295 CNS
SK-MEL-28 melanoma = tested on: SK-MEL-28 melanoma
SNB-75 CNS = tested on: SNB-75 CNS

In the case of `NC(N)=NCCC[C@H]1NC(=O)[C@@H](CCC(=O)O)NC(=O)[C@@H](CC(=O)O)NC(=O)[C@@H](CCC(=O)O)NC(=O)[C@H](Cc2c[nH]c3ccccc23)NC1=O` (cyclo(W[dE][dD][dE][dR])), the TGI (SK-OV-3 ovarian) is reported as > 7.5 µM, the TGI (CAKI-1 renal) is reported as > 7.5 µM and the TGI (NCI-H226 lung) is reported as > 7.5 µM. The TGI (LOX IMVI melanoma) was > 7.5 µM, the TGI (M14 melanoma) was > 7.5 µM and the TGI (HOP-62 NSCLC) was > 7.5 µM. For the same compound, the TGI (OVCAR-4 ovarian) was > 7.5 µM, the TGI (HOP-92 NSCLC) was > 7.5 µM and the TGI (PC-3 prostate) was > 7.5 µM. The TGI (UACC-62 melanoma) was > 7.5 µM, the TGI (NCI-H522 lung) was > 7.5 µM and the TGI (HCC-2998 colon) was > 7.5 µM. For the same compound, the TGI (SK-MEL-2 melanoma) was 0.507 µM, the TGI (A498 renal) was > 7.5 µM and the TGI (MDA-MB-435) was > 7.5 µM. For the same compound, the TGI (COLO 205 colon) was > 7.5 µM, the TGI (OVCAR-3 ovarian) was > 7.5 µM and the TGI (T-47D breast) was > 7.5 µM. The TGI (SF-268 CNS) was > 7.5 µM, the TGI (UACC-257 melanoma) was > 7.5 µM and the TGI (BT-549 breast) was > 7.5 µM. The TGI (HL-60(TB) leukemia) was > 7.5 µM, the TGI (CCRF-CEM leukemia) was > 7.5 µM and the TGI (NCI-H23 lung) was > 7.5 µM. For the same compound, the TGI (HT29 colon) was > 7.5 µM, the TGI (RPMI-8226 leukemia) was > 7.5 µM and the TGI (SNB-19 CNS) was > 7.5 µM. The TGI (KM12 colon) was > 7.5 µM, the TGI (ACHN renal) was > 7.5 µM and the TGI (NCI/ADR-RES ovarian) was > 7.5 µM. For the same compound, the TGI (SW-620 colon) was > 7.5 µM, the TGI (MDA-MB-231 breast) was > 7.5 µM and the TGI (DU-145 prostate) was > 7.5 µM. For the same compound, the TGI (HCT-116 colon) was > 7.5 µM, the TGI (HCT-15 colon) was > 7.5 µM and the TGI (K-562 leukemia) was > 7.5 µM. The TGI (SN12C renal) was > 7.5 µM, the TGI (U251 CNS) was > 7.5 µM and the TGI (IGROV1 ovarian) was > 7.5 µM. For the same compound, the TGI (OVCAR-5 ovarian) was > 7.5 µM, the TGI (SR leukemia) was > 7.5 µM and the TGI (A549 NSCLC) was > 7.5 µM. The TGI (SK-MEL-5 melanoma) was > 7.5 µM, the TGI (786-0 renal) was > 7.5 µM and the TGI (MOLT-4 leukemia) was > 7.5 µM. The TGI (OVCAR-8 ovarian) was > 7.5 µM, the TGI (MCF7 breast) was > 7.5 µM and the TGI (SF-539 CNS) was > 7.5 µM. For the same compound, the TGI (RXF 393 renal) was > 7.5 µM, the TGI (EKVX NSCLC) was > 7.5 µM and the TGI (NCI-H460 lung) was > 7.5 µM. For the same compound, the TGI (HS 578T breast) was > 7.5 µM, the TGI (TK-10 renal) was > 7.5 µM and the TGI (UO-31 renal) was > 7.5 µM. The TGI (SF-295 CNS) was > 7.5 µM.

Compound `COc1ccc(C(C)c2cc3c(cc2O)OCO3)cc1` (stereo unspecified) has a TGI (SK-OV-3 ovarian) of 53.2 µM, a TGI (CAKI-1 renal) of 74.4 µM and a TGI (NCI-H226 lung) of 36.1 µM. For the same compound, the TGI (LOX IMVI melanoma) was 26.5 µM, the TGI (M14 melanoma) was 27.2 µM and the TGI (HOP-62 NSCLC) was 33.7 µM. For the same compound, the TGI (OVCAR-4 ovarian) was > 100 µM, the TGI (HOP-92 NSCLC) was 31 µM and the TGI (PC-3 prostate) was 31.9 µM. The TGI (UACC-62 melanoma) was 24.4 µM, the TGI (NCI-H522 lung) was 26 µM and the TGI (HCC-2998 colon) was 19.3 µM. For the same compound, the TGI (SK-MEL-2 melanoma) was 28.9 µM, the TGI (A498 renal) was 28.5 µM and the TGI (MDA-MB-435) was 18 µM. The TGI (COLO 205 colon) was 27.4 µM, the TGI (OVCAR-3 ovarian) was 28.3 µM and the TGI (T-47D breast) was 79.1 µM. The TGI (SF-268 CNS) was 32.5 µM, the TGI (UACC-257 melanoma) was 32.2 µM and the TGI (BT-549 breast) was 32.5 µM. For the same compound, the TGI (HL-60(TB) leukemia) was 32.3 µM, the TGI (NCI-H23 lung) was 31.1 µM and the TGI (HT29 colon) was 28.9 µM. The TGI (RPMI-8226 leukemia) was 38.8 µM, the TGI (SNB-19 CNS) was 66.6 µM and the TGI (KM12 colon) was 83.3 µM. For the same compound, the TGI (ACHN renal) was 47.6 µM, the TGI (NCI/ADR-RES ovarian) was 32.7 µM and the TGI (SW-620 colon) was 28 µM. It also gave a TGI (MDA-MB-231 breast) of 28.6 µM, a TGI (SK-MEL-28 melanoma) of 33 µM and a TGI (DU-145 prostate) of 36.5 µM. For the same compound, the TGI (HCT-116 colon) was 29.6 µM, the TGI (HCT-15 colon) was 23.2 µM and the TGI (K-562 leukemia) was 28.7 µM. It also gave a TGI (SN12C renal) of 33.3 µM, a TGI (SNB-75 CNS) of 60.2 µM and a TGI (U251 CNS) of 28.6 µM. It also gave a TGI (IGROV1 ovarian) of 36.5 µM, a TGI (OVCAR-5 ovarian) of 45.2 µM and a TGI (SR leukemia) of 13.6 µM. For the same compound, the TGI (A549 NSCLC) was 32.2 µM, the TGI (SK-MEL-5 melanoma) was 28.1 µM and the TGI (786-0 renal) was 34.5 µM. For the same compound, the TGI (MOLT-4 leukemia) was 29.4 µM, the TGI (OVCAR-8 ovarian) was 31.7 µM and the TGI (MCF7 breast) was 30.8 µM. The TGI (SF-539 CNS) was 37 µM, the TGI (RXF 393 renal) was 30.1 µM and the TGI (EKVX NSCLC) was 49.6 µM. For the same compound, the TGI (NCI-H460 lung) was 28.8 µM, the TGI (HS 578T breast) was 42.6 µM and the TGI (TK-10 renal) was 35.9 µM. For the same compound, the TGI (UO-31 renal) was 29.8 µM and the TGI (SF-295 CNS) was 35.3 µM.
